Values joined by “and” are separate entries in the source; they are usually repeats but may differ in a detail not shown here. Equal values may be shown once. Read-outs that look alike come from different tables or passages of the source.
Test: Pharmacokinetics in CD-1 mice (plasma concentrations, PK parameters)
Assay type: in vivo
Settings: for concentration at 5 min / concentration at 0.5 h / concentration at 1 h / concentration at 2 h / concentration at 4 h / concentration at 24 h / concentration at 6 h: read-out: Concentration; for AUC(0-inf): read-out: AUCInf; for AUC(0-t): read-out: AUClast; for MRT inf: read-out: MRTInf_obs
Protocol: Pharmacokinetics for I-127, I-172 and I-210 were determined in Sprague Dawley rats or CD-1 mice by dosing intravenous (IV), subcutaneous (SC) or per oral (PO) using facility SOPs and sampling plasma at required time points. Species, formulation, route of administration and time points samples are listed below for each compound.
Compounds were extracted from plasma, injected on reverse phase HPLC, eluted with a gradient from 5% to 95% acetonitrile in water and quantified by mass spectrometry with internal standard. Data are expressed in ng compound per mL of plasma.

[1] = CD-1, mouse, plasma, iv, 2 mg/kg, mouse (CD1) iv 2 mg/kg, Mean
[2] = CD-1, mouse, plasma, iv, 2 mg/kg, mouse (CD1) iv 2 mg/kg, individual Mouse 1-3
[3] = CD-1, mouse, plasma, sc, 30 mg/kg, mouse (CD1) sc 30 mg/kg, Mean
[4] = CD-1, mouse, plasma, sc, 30 mg/kg, mouse (CD1) sc 30 mg/kg, individual Mouse 7-9
[5] = mouse (CD1) iv 2 mg/kg, individual Mouse 1-3, 2 mg/kg
[6] = mouse (CD1) sc 30 mg/kg, individual Mouse 7-9, 30 mg/kg

- concentration at 5 min (CD-1, mouse, plasma, iv, 2 mg/kg, mouse (CD1) iv 2 mg/kg, 5 min, Mean): 3420 ng/mL
- concentration at 5 min (CD-1, mouse, plasma, iv, 2 mg/kg, mouse (CD1) iv 2 mg/kg, 5 min, individual Mouse 1-3): 4150 ng/mL
- concentration at 0.25 h (CD-1, mouse, plasma, iv, 2 mg/kg, mouse (CD1) iv 2 mg/kg, 0.25 h, Mean): 387 ng/mL
- concentration at 0.25 h (CD-1, mouse, plasma, iv, 2 mg/kg, mouse (CD1) iv 2 mg/kg, 0.25 h, individual Mouse 1-3): 444 ng/mL
- concentration at 0.5 h (CD-1, mouse, plasma, iv, 2 mg/kg, mouse (CD1) iv 2 mg/kg, 0.5 h, Mean): 123 ng/mL
- concentration at 0.5 h (CD-1, mouse, plasma, iv, 2 mg/kg, mouse (CD1) iv 2 mg/kg, 0.5 h, individual Mouse 1-3): 130 ng/mL
- concentration at 1 h (CD-1, mouse, plasma, iv, 2 mg/kg, mouse (CD1) iv 2 mg/kg, 1 h, Mean): 34.7 ng/mL
- concentration at 1 h (CD-1, mouse, plasma, iv, 2 mg/kg, mouse (CD1) iv 2 mg/kg, 1 h, individual Mouse 1-3): 34.3 ng/mL
- concentration at 2 h (CD-1, mouse, plasma, iv, 2 mg/kg, mouse (CD1) iv 2 mg/kg, 2 h, Mean): 12.6 ng/mL
- concentration at 2 h (CD-1, mouse, plasma, iv, 2 mg/kg, mouse (CD1) iv 2 mg/kg, 2 h, individual Mouse 1-3): 11.5 ng/mL
- concentration at 4 h (CD-1, mouse, plasma, iv, 2 mg/kg, mouse (CD1) iv 2 mg/kg, 4 h, Mean): 7.77 ng/mL
- concentration at 4 h (CD-1, mouse, plasma, iv, 2 mg/kg, mouse (CD1) iv 2 mg/kg, 4 h, individual Mouse 1-3): 9.04 ng/mL
- concentration at 8 h (CD-1, mouse, plasma, iv, 2 mg/kg, mouse (CD1) iv 2 mg/kg, 8 h, Mean): 2.46 ng/mL
- concentration at 8 h (CD-1, mouse, plasma, iv, 2 mg/kg, mouse (CD1) iv 2 mg/kg, 8 h, individual Mouse 1-3): 2.62 ng/mL
- concentration at 24 h (CD-1, mouse, plasma, iv, 2 mg/kg, mouse (CD1) iv 2 mg/kg, 24 h, individual Mouse 1-3): 2.55 ng/mL
- half-life [1]: 2.53 h
- AUC(0-inf) [1]: 1070 ng·h/mL
- AUC(0-t) [1]: 1060 ng·h/mL
- C0 (CD-1, mouse, plasma, iv, 2 mg/kg, mouse (CD1) iv 2 mg/kg, Mean, read-out: C0): 10200 ng/mL
- MRT inf [1]: 0.61 h
- half-life [2]: 2.71 h
- AUC(0-inf) [2]: 1270 ng·h/mL
- AUC(0-t) [2]: 1260 ng·h/mL
- C0 (CD-1, mouse, plasma, iv, 2 mg/kg, mouse (CD1) iv 2 mg/kg, individual Mouse 1-3, read-out: C0): 12700 ng/mL
- concentration at 0.25 h (CD-1, mouse, plasma, sc, 30 mg/kg, mouse (CD1) sc 30 mg/kg, 0.25 h, Mean): 43.1 ng/mL
- concentration at 0.25 h (CD-1, mouse, plasma, sc, 30 mg/kg, mouse (CD1) sc 30 mg/kg, 0.25 h, individual Mouse 7-9): 34.6 ng/mL
- concentration at 0.5 h (CD-1, mouse, plasma, sc, 30 mg/kg, mouse (CD1) sc 30 mg/kg, 0.5 h, Mean): 64.8 ng/mL
- concentration at 0.5 h (CD-1, mouse, plasma, sc, 30 mg/kg, mouse (CD1) sc 30 mg/kg, 0.5 h, individual Mouse 7-9): 71.9 ng/mL
- concentration at 1 h (CD-1, mouse, plasma, sc, 30 mg/kg, mouse (CD1) sc 30 mg/kg, 1 h, Mean): 64.8 ng/mL
- concentration at 1 h (CD-1, mouse, plasma, sc, 30 mg/kg, mouse (CD1) sc 30 mg/kg, 1 h, individual Mouse 7-9): 52.6 ng/mL
- concentration at 2 h (CD-1, mouse, plasma, sc, 30 mg/kg, mouse (CD1) sc 30 mg/kg, 2 h, Mean): 50.8 ng/mL
- concentration at 2 h (CD-1, mouse, plasma, sc, 30 mg/kg, mouse (CD1) sc 30 mg/kg, 2 h, individual Mouse 7-9): 48 ng/mL
- concentration at 4 h (CD-1, mouse, plasma, sc, 30 mg/kg, mouse (CD1) sc 30 mg/kg, 4 h, Mean): 37.3 ng/mL
- concentration at 4 h (CD-1, mouse, plasma, sc, 30 mg/kg, mouse (CD1) sc 30 mg/kg, 4 h, individual Mouse 7-9): 33.3 ng/mL
- concentration at 6 h (CD-1, mouse, plasma, sc, 30 mg/kg, mouse (CD1) sc 30 mg/kg, 6 h, Mean): 19.4 ng/mL
- concentration at 6 h (CD-1, mouse, plasma, sc, 30 mg/kg, mouse (CD1) sc 30 mg/kg, 6 h, individual Mouse 7-9): 16 ng/mL
- concentration at 24 h (CD-1, mouse, plasma, sc, 30 mg/kg, mouse (CD1) sc 30 mg/kg, 24 h, Mean): 5.33 ng/mL
- concentration at 24 h (CD-1, mouse, plasma, sc, 30 mg/kg, mouse (CD1) sc 30 mg/kg, 24 h, individual Mouse 7-9): 5.4 ng/mL
- half-life [3]: 8 h
- AUC(0-inf) [3]: 538 ng·h/mL
- AUC(0-t) [3]: 476 ng·h/mL
- Cmax (CD-1, mouse, plasma, sc, 30 mg/kg, mouse (CD1) sc 30 mg/kg, Mean, read-out: Cmax): 71.2 ng/mL
- MRT inf [3]: 9.4 h
- Tmax (CD-1, mouse, plasma, sc, 30 mg/kg, mouse (CD1) sc 30 mg/kg, Mean, read-out: Tmax): 0.833 h
- half-life [4]: 8.79 h
- AUC(0-inf) [4]: 491 ng·h/mL
- AUC(0-t) [4]: 422 ng·h/mL
- Cmax (CD-1, mouse, plasma, sc, 30 mg/kg, mouse (CD1) sc 30 mg/kg, individual Mouse 7-9, read-out: Cmax): 71.9 ng/mL
- MRT inf [4]: 10.4 h
- Tmax (CD-1, mouse, plasma, sc, 30 mg/kg, mouse (CD1) sc 30 mg/kg, individual Mouse 7-9, read-out: Tmax): 0.5 h
- Concentration (mouse (CD1) iv 2 mg/kg, 5 min, individual Mouse 1-3, 2 mg/kg): 2810 ng/mL and 3290 ng/mL
- Concentration (mouse (CD1) iv 2 mg/kg, 0.25 h, individual Mouse 1-3, 2 mg/kg): 314 ng/mL and 404 ng/mL
- Concentration (mouse (CD1) iv 2 mg/kg, 0.5 h, individual Mouse 1-3, 2 mg/kg): 102 ng/mL and 136 ng/mL
- Concentration (mouse (CD1) iv 2 mg/kg, 1 h, individual Mouse 1-3, 2 mg/kg): 31.5 ng/mL and 38.2 ng/mL
- Concentration (mouse (CD1) iv 2 mg/kg, 2 h, individual Mouse 1-3, 2 mg/kg): 11.7 ng/mL and 14.6 ng/mL
- Concentration (mouse (CD1) iv 2 mg/kg, 4 h, individual Mouse 1-3, 2 mg/kg): 6.56 ng/mL and 7.70 ng/mL
- Concentration (mouse (CD1) iv 2 mg/kg, 8 h, individual Mouse 1-3, 2 mg/kg): 2.07 ng/mL and 2.69 ng/mL
- Concentration (mouse (CD1) iv 2 mg/kg, 24 h, individual Mouse 1-3, 2 mg/kg): BLOQ
- AUC_%Extrap_obs (mouse (CD1) iv 2 mg/kg, Mean): 0.826%
- AUClast/D (mouse (CD1) iv 2 mg/kg, Mean): 532 h·ng/mL per mg/kg
- Cl_obs (mouse (CD1) iv 2 mg/kg, Mean): 31.8 mL/min/kg
- Vss_obs (mouse (CD1) iv 2 mg/kg, Mean): 1.15 L/kg
- AUCInf [5]: 877 ng·h/mL and 1067 ng·h/mL
- AUC_%Extrap_obs [5]: 0.805% and 0.818% and 0.856%
- AUClast [5]: 870 ng·h/mL and 1058 ng·h/mL
- AUClast/D [5]: 632 h·ng/mL per mg/kg and 435 h·ng/mL per mg/kg and 529 h·ng/mL per mg/kg
- C0 [5]: 8401 ng/mL and 9383 ng/mL
- MRTInf_obs [5]: 0.332 h and 0.362 h and 1.13 h
- T1/2 [5]: 2.40 h and 2.48 h
- Vss_obs [5]: 0.522 L/kg and 0.826 L/kg and 2.11 L/kg
- Concentration (mouse (CD1) po 30 mg/kg, 0.25 h, individual Mouse 4-6): BLOQ
- Concentration (mouse (CD1) po 30 mg/kg, 0.5 h, individual Mouse 4-6): BLOQ
- Concentration (mouse (CD1) po 30 mg/kg, 1 h, individual Mouse 4-6): BLOQ
- Concentration (mouse (CD1) po 30 mg/kg, 2 h, individual Mouse 4-6): BLOQ
- Concentration (mouse (CD1) po 30 mg/kg, 4 h, individual Mouse 4-6): BLOQ
- Concentration (mouse (CD1) po 30 mg/kg, 8 h, individual Mouse 4-6): BLOQ
- Concentration (mouse (CD1) po 30 mg/kg, 24 h, individual Mouse 4-6): BLOQ
- Concentration (mouse (CD1) sc 30 mg/kg, 0.25 h, individual Mouse 7-9, 30 mg/kg): 40.0 ng/mL and 54.6 ng/mL
- Concentration (mouse (CD1) sc 30 mg/kg, 0.5 h, individual Mouse 7-9, 30 mg/kg): 57.6 ng/mL and 64.8 ng/mL
- Concentration (mouse (CD1) sc 30 mg/kg, 1 h, individual Mouse 7-9, 30 mg/kg): 63.0 ng/mL and 78.7 ng/mL
- Concentration (mouse (CD1) sc 30 mg/kg, 2 h, individual Mouse 7-9, 30 mg/kg): 46.5 ng/mL and 58.0 ng/mL
- Concentration (mouse (CD1) sc 30 mg/kg, 4 h, individual Mouse 7-9, 30 mg/kg): 37.0 ng/mL and 41.6 ng/mL
- Concentration (mouse (CD1) sc 30 mg/kg, 6 h, individual Mouse 7-9, 30 mg/kg): 20.7 ng/mL and 21.5 ng/mL
- Concentration (mouse (CD1) sc 30 mg/kg, 24 h, individual Mouse 7-9, 30 mg/kg): 4.74 ng/mL and 5.85 ng/mL
- AUC_%Extrap_obs (mouse (CD1) sc 30 mg/kg, Mean): 11.5%
- AUClast/D (mouse (CD1) sc 30 mg/kg, Mean): 15.9 h·ng/mL per mg/kg
- F (mouse (CD1) sc 30 mg/kg, Mean): 3.34%
- AUCInf [6]: 522 ng·h/mL and 601 ng·h/mL
- AUC_%Extrap_obs [6]: 14.0% and 9.60% and 11.1%
- AUClast [6]: 472 ng·h/mL and 535 ng·h/mL
- AUClast/D [6]: 14.1 h·ng/mL per mg/kg and 15.7 h·ng/mL per mg/kg and 17.8 h·ng/mL per mg/kg
- Cmax [6]: 63.0 ng/mL and 78.7 ng/mL
- F [6]: 3.05% and 3.25% and 3.74%
- MRTInf_obs [6]: 8.61 h and 9.13 h
- T1/2 [6]: 7.34 h and 7.89 h
- Tmax [6]: 1 h
SMILES: NC(=O)c1nn(-c2ccc(C(=O)NCCCCCNCCNc3cccc4c3C(=O)N(C3CCC(=O)NC3=O)C4=O)cc2)cc1NC(=O)c1coc(-c2ccnc(NCC(F)(F)F)c2)n1 (stereo not shown) [I-172, N-[3-carbamoyl-1-[4-[5-[2-[[2-(2,6-dioxo-3-piperidyl)-1,3-dioxo-isoindolin-4-yl]amino]ethylamino]pentylcarbamoyl]phenyl]pyrazol-4-yl]-2-[2-(2,2,2-trifluoroethylamino)-4-pyridyl]oxazole-4-carboxamide]
- Cl_obs [5]: 26.2 mL/min/kg and 38.0 mL/min/kg and 31.2 mL/min/kg

— US10874743B2, “IRAK degraders and uses thereof” (Kymera Therapeutics, Inc., priority 2017, dated 2020)
